The values below come from patent publication US20240059675A1, “PIPERIDINYLPYRIDINYLCARBONITRILE DERIVATIVES AS INHIBITORS OF GLUTAMINYL-PEPTIDE CYCLOTRANSFERASE AND GLUTAMINYL-PEPTIDE CYCLOTRANSFERASE LIKE PROTEIN” (Boehringer Ingelheim International GmbH, priority 2022, published 2024).

Molecules are shown by their SMILES.

The target of one series is QPCTL (Homo sapiens (Human), UniProt Q9NXS2). As to the kind of experiment: Assay A: biochemical QPCTL activity assay (MALDI-TOF MS, CD47 peptide substrate). To be noted: 0.5 nM enzyme, 10 μM CD47 peptide substrate; read-out: Inhibition of QPCTL: IC50.
The next series deals with QPCT (Homo sapiens (Human), UniProt Q16769). As to the kind of experiment: Assay A: biochemical QPCT activity assay (MALDI-TOF MS, CD47 peptide substrate). Particulars: 0.5 nM enzyme, 20 μM CD47 peptide substrate; read-out: Inhibition of QPCT: IC50.
Series [1] relates to SIRPα signalling induced by Raji cells. As to the kind of experiment: Assay B: SIRPα signalling assay using Raji cells. Type of series: cell-based. Particulars: Homo sapiens, 48 h compound incubation, Jurkat PathHunter SIRPαV1 reporter cells, read-out: Inhibition of SIRPα signalling induced by Raji cells: IC50. How it is done:
(§1) Two cell types are independently used: the Raji cell line (lymphoblast-like human cell line derived from B lymphocytes from a Burkitt's lymphoma patient in 1963) and A549 cells (adenocarcinomic human alveolar basal epithelial cells).
(§2) Test compounds were dissolved in 100% DMSO and serially diluted into a white 384-well microtiter cell culture plate (PerkinElmer #60076780 in case of Raji assay; PDL-coated plates Greiner #781945 in case of A549 assay). 5000 Raji cells (ATCC #CC86) or 5000 A549 cells (ATCC #CCL-185) in Assay Complete Cell Plating reagent 30 (DiscoverX 93-0563R30B) were added per well. The assay plate was incubated for 48 h at 37° C., 95% humidity and 5% CO2. 15000 reporter cells (Jurkat PathHunter SIRPαV1, DiscoverX #93-1135C19) were added to each well, and the plate was incubated for 5 h at 37° C., 95% humidity and 5% CO2. Bioassay reagent 1 of the PathHunter Bioassay detection kit (DiscoverX 93-0001) was added to each well of the plate using a multichannel pipette followed by a 15 min incubation at room temperature. Afterwards bioassay reagent 2 was added followed by 60 min incubation at room temperature (incubation in the dark).
(§3) The analysis of the data was performed using the luminescence signal generated by beta-galactosidase in the PathHunter reporter cell line. The luminescence measurement was done using a Pherastar Multi-Mode Reader. Dose-response curves & IC50 data were calculated with 4-parameter sigmoidal dose response formula.

In series [2] the test system is SIRPα signalling induced by A549 cells. The experiment in a line: Assay B: SIRPα signalling assay using A549 cells. It is filed as cell-based. Particulars: Homo sapiens, 48 h compound incubation, Jurkat PathHunter SIRPαV1 reporter cells, read-out: Inhibition of SIRPα signalling induced by A549 cells: IC50. How it is done: as §1, §2, §3
The nature of series [3]: Assay C: permeability in CACO-2 cells. It is filed as in vitro ADME. Particulars: human, pH 7.2; for efflux ratio: Caco-2, permeability B-A / permeability A-B; for Papp A→B: Caco-2, apical to basolateral.

Sequence of QPCT (Q16769 29-361): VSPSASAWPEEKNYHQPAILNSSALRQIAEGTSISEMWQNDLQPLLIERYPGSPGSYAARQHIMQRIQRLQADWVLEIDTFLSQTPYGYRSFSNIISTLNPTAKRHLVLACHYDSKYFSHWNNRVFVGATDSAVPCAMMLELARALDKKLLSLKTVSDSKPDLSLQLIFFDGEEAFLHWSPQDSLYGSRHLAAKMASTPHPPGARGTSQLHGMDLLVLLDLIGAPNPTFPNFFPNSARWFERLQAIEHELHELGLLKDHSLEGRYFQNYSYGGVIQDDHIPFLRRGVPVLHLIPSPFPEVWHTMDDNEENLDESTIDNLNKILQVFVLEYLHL
Sequence of QPCTL (Q9NXS2 whole entry): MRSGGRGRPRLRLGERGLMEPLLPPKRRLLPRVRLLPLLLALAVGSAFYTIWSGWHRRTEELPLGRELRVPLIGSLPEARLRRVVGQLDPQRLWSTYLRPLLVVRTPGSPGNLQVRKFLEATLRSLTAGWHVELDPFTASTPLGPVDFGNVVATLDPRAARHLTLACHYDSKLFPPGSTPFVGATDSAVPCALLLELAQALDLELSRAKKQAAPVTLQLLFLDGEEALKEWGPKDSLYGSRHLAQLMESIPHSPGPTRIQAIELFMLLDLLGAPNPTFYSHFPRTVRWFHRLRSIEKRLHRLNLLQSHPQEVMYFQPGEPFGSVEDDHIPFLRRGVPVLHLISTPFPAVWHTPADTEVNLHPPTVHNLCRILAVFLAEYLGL

Take `Cn1cnnc1C1(F)CCN(c2c(C#N)ccnc2-c2cnc3nn(C4(C(F)(F)F)CC4)cc3c2)CC1` [Example 30]: the IC50 stood at 2 nM at QPCTL, 2 nM at QPCT, 87 nM in series [1] and 47 nM in series [2]. Also, in series [3], the efflux ratio was 54.9. In addition, the Papp A→B in series [3] came out at 0.5 ×10⁻⁶ cm/s.
On to `Nc1ncc(C2CCN(c3ncccc3-c3ccc(F)nc3)CC2)s1` [Example 1094, reference compound], for which the IC50 in series [1] amounted to 3240 nM.
As to `Cn1cnnc1C1(F)CCN(c2c(C#N)ccnc2-c2cncc(-n3cccn3)c2)CC1` [Example 19], the IC50 at QPCTL was determined as 2 nM; at QPCT, 10 nM; in series [1] it was 509 nM; in series [2], 18 nM. Also, the efflux ratio in series [3] came to 6.5. This compound showed a Papp A→B in series [3] of 4.9 ×10⁻⁶ cm/s.
Regarding `Cn1cnnc1C1(C)CCN(c2c(-c3ccc(F)nc3)ccnc2C#N)CC1` [Example 11], the IC50 on QPCTL stood at 14 nM; on QPCT it was 11 nM; in series [1], 1820 nM; in series [2], 237 nM. For the same compound, the efflux ratio in series [3] turned out to be 11.6. This compound also yielded a Papp A→B in series [3] of 3.1 ×10⁻⁶ cm/s.
As for `Cn1cnnc1C1(F)CCN(c2c(C#N)ccnc2-c2cnc3nn(C(C)(C)C)cc3c2)CC1` [Example 8], the IC50 in series [1] amounted to 25 nM; in series [2], 22 nM. The same compound displayed a Papp A→B in series [3] of 1.3 ×10⁻⁶ cm/s.
Turning to `Cn1cnnc1C1(F)CCN(c2c(C#N)ccnc2-c2cnc3nn(C(C)(C)c4ccc(F)cc4)cc3c2)CC1` [Example 32], the IC50 at QPCTL turned out to be 1 nM; at QPCT, 1 nM; in series [1] it was 6 nM; in series [2], 3 nM. Besides, the efflux ratio in series [3] is 12.6. Moreover, the Papp A→B in series [3] was determined as 3.5 ×10⁻⁶ cm/s.
On to `C=CCOc1cc(-c2nccc(C#N)c2N2CCC(F)(c3nncn3C)CC2)cnc1F` [Example 28], for which the concentration for half-maximal inhibition (IC50) at QPCTL worked out at 2 nM; at QPCT, 3 nM; in series [1], 180 nM; in series [2], 33 nM.
`CC(C)Oc1cc(-c2nccc(C#N)c2N2CCC(c3nncn3C)CC2)cnc1F` [Example 4]: the IC50 at QPCTL was 1 nM; on QPCT, 12 nM; in series [1], 182 nM; in series [2], 38 nM. The efflux ratio in series [3] was found to be 5.9. Further, the Papp A→B in series [3] came to 8.5 ×10⁻⁶ cm/s.
As for `Cn1cnnc1C1CCN(c2ncccc2-c2cccnc2)CC1` [SEN180, reference compound], the IC50 in series [1] was 2970 nM; in series [2], 868 nM.
With `Cn1cnnc1C1CCN(c2c(C#N)ccnc2-c2ccc(F)nc2)CC1` [Example 2], the IC50 on QPCTL came to 2 nM; at QPCT, 17 nM; in series [1], 245 nM; in series [2], 60 nM. Also, the efflux ratio in series [3] amounted to 3.5. Besides, the Papp A→B in series [3] came out at 4.8 ×10⁻⁶ cm/s.
Regarding `Cn1cnnc1C1(F)CCN(c2c(C#N)ccnc2-c2cnc3nn(C4(C)CC(F)(F)C4)cc3c2)CC1` [Example 31], the IC50 worked out at 2 nM at QPCTL, 3 nM on QPCT, 179 nM in series [1] and 21 nM in series [2]. Besides, the efflux ratio in series [3] came out at 27.6. Moreover, in series [3], the Papp A→B was determined as 1.7 ×10⁻⁶ cm/s.
Consider `Cn1cnnc1C1(F)CCN(c2c(C#N)ccnc2-c2cnc3nnc(C(C)(C)C)n3c2)CC1` [Example 12], for which the IC50 was 2 nM at QPCTL, 2 nM at QPCT, 53 nM in series [1] and 31 nM in series [2]. Further, the efflux ratio in series [3] is 11.2. This compound had a Papp A→B in series [3] of 2.5 ×10⁻⁶ cm/s.
As for `Cn1cnnc1C1(F)CCN(c2c(C#N)ccnc2-c2cn[nH]c2)CC1` [Example 24], the IC50 was 18 nM at QPCTL, 31 nM at QPCT, 1770 nM in series [1] and 693 nM in series [2].
As to `Cn1cnnc1C1(F)CCN(c2c(C#N)ccnc2-c2ccc(F)nc2)CC1` [Example 1], the IC50 in series [1] is 168 nM; in series [2], 51 nM. For the same compound, the apical-to-basolateral permeability (Papp A→B) in series [3] was 28 ×10⁻⁶ cm/s.
With `COc1cc(-c2nccc(C#N)c2N2CCC(c3nncn3C)CC2)cnc1F` [Example 5], the IC50 was 2 nM on QPCTL, 13 nM at QPCT, 350 nM in series [1] and 44 nM in series [2]. For the same compound, the efflux ratio in series [3] turned out to be 14. In addition, in series [3], the Papp A→B turned out to be 2 ×10⁻⁶ cm/s.
Take `Cn1cnnc1C1(F)CCN(c2c(C#N)ccnc2-c2cnn3ncccc23)CC1` [Example 14]: the IC50 at QPCTL stood at 11 nM; at QPCT, 10 nM; in series [1], 436 nM; in series [2] it was 116 nM. For the same compound, the efflux ratio in series [3] was 0.6. In addition, the Papp A→B in series [3] was 41 ×10⁻⁶ cm/s.
For `Nc1nnc(C2CCN(c3ncccc3-c3ccc(F)nc3)CC2)s1` [Example 1095, reference compound], the IC50 in series [1] came out at 2200 nM; in series [2], 161 nM.
For `Cn1cnnc1C1(F)CCN(c2c(C#N)ccnc2-c2ccnnc2)CC1` [Example 22], the IC50 worked out at 3 nM at QPCTL, 12 nM on QPCT, 653 nM in series [1] and 103 nM in series [2]. In series [3], the efflux ratio is 10. Besides, in series [3], the Papp A→B was 0.2 ×10⁻⁶ cm/s.
As to `Cn1cnnc1C1(F)CCN(c2c(C#N)ccnc2-c2cnc(F)c(Cl)c2)CC1` [Example 18], the IC50 was determined as 8 nM on QPCTL, 23 nM at QPCT, 482 nM in series [1] and 112 nM in series [2]. Moreover, the efflux ratio in series [3] was 1.4. The Papp A→B in series [3] turned out to be 41 ×10⁻⁶ cm/s.
As for `Cn1cnnc1C1(F)CCN(c2c(C#N)ccnc2-c2cnc(F)c(OCC3CC3)c2)CC1` [Example 26], the IC50 in series [1] was determined as 103 nM. The half-maximal inhibitory concentration (IC50) in series [2] worked out at 7 nM. For the same compound, in series [3], the efflux ratio came to 1.7 and the Papp A→B came to 45 ×10⁻⁶ cm/s.
The like results for `Cn1cnnc1C1(F)CCN(c2c(C#N)ccnc2-c2cnc3nn(C(C)(C)C(F)(F)F)cc3c2)CC1` [Example 29] were, in that order, 81 nM, 13 nM, 15.2 and 2.5 ×10⁻⁶ cm/s.
With `Cc1cc(-c2nccc(C#N)c2N2CCC(F)(c3nncn3C)CC2)cnc1F` [Example 6], the IC50 at QPCTL amounted to 2 nM; on QPCT it was 8 nM; in series [1], 190 nM; in series [2] it was 34 nM. Also, the efflux ratio in series [3] was found to be 2.3. Further, in series [3], the Papp A→B was found to be 34 ×10⁻⁶ cm/s.
In the case of `Cn1cc2cc(-c3nccc(C#N)c3N3CCC(F)(c4nncn4C)CC3)cnc2n1` [Example 21], the IC50 turned out to be 1 nM at QPCTL, 3 nM on QPCT, 322 nM in series [1] and 22 nM in series [2].
As for `Cn1cnnc1C1(C)CCN(c2c(C#N)ccnc2-c2ccc(F)nc2)CC1` [Example 3], the IC50 on QPCTL is 2 nM; on QPCT it was 2 nM; in series [1], 467 nM; in series [2], 29 nM. In addition, in series [3], the efflux ratio worked out at 8.4. The Papp A→B in series [3] was 4.9 ×10⁻⁶ cm/s.
In the case of `Cn1cnnc1C1CCN(c2c(-c3ccc(F)nc3)ccnc2C#N)CC1` [Example 9], the IC50 was 4 nM on QPCTL, 26 nM at QPCT and 1090 nM in series [1]. In addition, the efflux ratio in series [3] was determined as 7.8. In series [3], this compound returned a Papp A→B of 1.8 ×10⁻⁶ cm/s.
As for `Cn1cnnc1C1(F)CCN(c2c(-c3ccc(F)nc3)ccnc2C#N)CC1` [Example 10], the half-maximal inhibitory concentration (IC50) at QPCTL amounted to 4 nM; at QPCT, 8 nM; in series [1], 352 nM. Further, the efflux ratio in series [3] stood at 5.6. Besides, the apical-to-basolateral permeability (Papp A→B) in series [3] was 11 ×10⁻⁶ cm/s.
With `Cn1cnnc1C1(F)CCN(c2c(C#N)ccnc2-c2cncc(C3CC3)c2)CC1` [Example 20], the IC50 at QPCTL was determined as 21 nM; at QPCT, 29 nM; in series [1] it was 1950 nM; in series [2] it was 342 nM.
Regarding `Cn1cnnc1C1(F)CCN(c2c(C#N)ccnc2-c2cnsc2)CC1` [Example 25], the IC50 on QPCTL is 10 nM; at QPCT, 30 nM; in series [1], 1610 nM; in series [2], 44 nM.
As for `Cn1cnnc1C1CCN(c2ncccc2-c2ccc(F)nc2)CC1` [SEN177, reference compound], the values for the IC50 in series [1] and in series [2] were 1360 nM and 214 nM, respectively.
In the case of `Cn1cnnc1C1(F)CCN(c2c(C#N)ccnc2-c2cnc(F)c(F)c2)CC1` [Example 23], the 50% inhibitory concentration (IC50) at QPCTL is 6 nM; at QPCT, 32 nM; in series [1], 1660 nM; in series [2] it was 114 nM.
